Measurements published in US7507732B2, “Cyclopentapyridine and tetrahydroquinoline derivatives” (Pfizer Inc., priority 2005, dated 2009).
Where two headings read alike, the source gives them in different places. Each block holds one compound with its values, some of them ahead of it.

Legend:
human 5HT2c receptor = molecular target: T1, human 5HT2c receptor (Homo sapiens, UniProt P28335); test: 5HT2c Binding Procedure (competition binding against 3H-5HT, membranes of transfected Swiss 3T3 mouse cells)
T1 construct: expressed in transfected cells; host or cells: Swiss 3T3 mouse cells (ATCC)
T1 sequence (P28335 33-458): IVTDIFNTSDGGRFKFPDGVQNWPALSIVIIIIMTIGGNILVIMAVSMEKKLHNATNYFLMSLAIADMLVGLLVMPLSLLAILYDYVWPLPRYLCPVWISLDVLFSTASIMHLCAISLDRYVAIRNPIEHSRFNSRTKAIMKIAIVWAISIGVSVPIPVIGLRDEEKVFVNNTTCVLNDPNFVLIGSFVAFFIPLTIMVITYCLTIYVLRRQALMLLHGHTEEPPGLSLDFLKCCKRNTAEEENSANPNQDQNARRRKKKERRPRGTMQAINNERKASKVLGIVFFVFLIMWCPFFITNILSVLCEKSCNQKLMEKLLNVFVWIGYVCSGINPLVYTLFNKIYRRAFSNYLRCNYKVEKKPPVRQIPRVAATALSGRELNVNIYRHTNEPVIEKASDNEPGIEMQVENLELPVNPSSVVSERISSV
Description: Affinity of compounds at the serotonin 5HT2c binding site is determined by competition binding in Swiss 3T3 mouse cells (available from the American Type Culture Collection (ATCC), Manassas, Va.) transfected with the human 5HT2c receptor against ^3H-5HT.

rat 5HT2a receptor = molecular target: T2, rat 5HT2a receptor (Rattus norvegicus, UniProt P14842); test: 5HT2a Binding Procedure (competition binding using 125I-DOI, membranes of transfected NIH 3T3 mouse cells)
T2 construct: expressed in transfected cells; host or cells: NIH 3T3 mouse cells
Description: Affinity of compounds at the serotonin 5HT2a binding site is determined by competition binding in NIH 3T3 mouse cells transfected with the rat 5HT2a receptor using 125I-DOI.

human 5HT2b receptor = human 5HT2b receptor (Homo sapiens, UniProt P41595); test: 5HT2b Binding Procedure (competition binding with 3H-LSD, CHO cell membranes)
Description: Affinity of compounds for the human 5HT2b receptor is determined by competition binding using membranes prepared from Chinese hamster ovary (CHO) cells containing the tetracycline operator (Flp-In Trex system—Invitrogen) that were engineered to express the human 5HT2b receptor. […] The supernatant was removed and discarded, while the pellet was resuspended in homogenization buffer, then centrifuged for 20 minutes at 25,000×g at 4° C. The supernatant was discarded while the pellet (containing membranes) was resuspended in homogenization buffer, and the membranes were aliquoted and frozen at −80° C. The binding assay was set up in 96-well plates, which contained 2 μl of test compound (in 100% DMSO) then 100 μl of ^3H-LSD (final concentration=3 nM) diluted in assay buffer (50 mM Tris pH 7.4, 4 mM CaCl2, 0.1% Ascorbic Acid), followed by the addition of 100 μl of membranes (approximately 15 μg membrane protein, diluted in assay buffer) from 5HT2b -expressing cells. 1 μM mianserin was used to calculate non-specific binding. The assay plates were incubated at 37° C. for 60 minutes, then the assay was terminated by filtration onto 96-well UniFilter™ plates (with GF/C filters—from PerkinElmer™) which were pre-soaked in 0.3% PEI. The filterplates were washed 2× with cold wash buffer (50 mM Tris, pH 7.4), then dried, scintillation fluid added and radioactivity determined in a Wallac Microbeta™ plate scintillation counter (PerkinElmer™). Concentration-response curves of the % inhibition of specific binding by test compounds versus the test compound concentration, was used to determine the IC50 for each compound and the Ki value calculated based on the Cheng-Prusoff equation (Ki=IC50/(1+(L/Kd)), where L is the concentration of the radioligand used in the binding assay and the Kd is based on previous saturation studies with the radioligand.

[1] = cited from earlier work
[2] = receptor binding, 5HT2c, read-out: 2cKi
[3] = receptor binding, 5HT2a, read-out: 2aKi

human 5HT2b receptor, sequence (P41595 whole entry): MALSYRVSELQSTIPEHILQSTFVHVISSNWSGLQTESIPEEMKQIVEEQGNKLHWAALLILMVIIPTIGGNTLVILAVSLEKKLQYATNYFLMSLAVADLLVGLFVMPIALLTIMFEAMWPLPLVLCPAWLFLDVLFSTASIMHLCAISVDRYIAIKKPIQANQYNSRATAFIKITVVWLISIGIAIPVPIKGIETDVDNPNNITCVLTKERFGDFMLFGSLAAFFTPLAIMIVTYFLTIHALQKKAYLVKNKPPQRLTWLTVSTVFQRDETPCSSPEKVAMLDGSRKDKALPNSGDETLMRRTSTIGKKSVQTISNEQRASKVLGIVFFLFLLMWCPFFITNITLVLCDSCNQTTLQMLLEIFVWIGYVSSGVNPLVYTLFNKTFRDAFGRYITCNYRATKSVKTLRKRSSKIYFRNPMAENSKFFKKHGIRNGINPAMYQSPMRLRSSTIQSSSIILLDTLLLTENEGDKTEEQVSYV
T2 sequence (P14842 whole entry): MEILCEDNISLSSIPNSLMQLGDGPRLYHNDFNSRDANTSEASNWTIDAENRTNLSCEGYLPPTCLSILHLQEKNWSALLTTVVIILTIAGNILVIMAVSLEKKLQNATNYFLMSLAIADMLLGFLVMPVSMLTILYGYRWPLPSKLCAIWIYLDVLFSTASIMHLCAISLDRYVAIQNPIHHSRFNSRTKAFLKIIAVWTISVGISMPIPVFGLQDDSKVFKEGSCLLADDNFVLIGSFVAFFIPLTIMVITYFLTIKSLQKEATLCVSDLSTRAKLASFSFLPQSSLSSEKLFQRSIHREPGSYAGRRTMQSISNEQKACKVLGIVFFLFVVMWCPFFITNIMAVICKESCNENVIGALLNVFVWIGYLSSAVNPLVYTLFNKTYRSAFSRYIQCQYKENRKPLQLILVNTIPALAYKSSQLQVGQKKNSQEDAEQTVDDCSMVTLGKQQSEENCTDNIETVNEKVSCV

SMILES: Fc1ccc(F)c(CO[C@H]2CCc3ccc(N4CCNCC4)nc32)c1 [Example 1A-37, (7S)-7-[(2,5-difluorobenzyl)oxy]-2-piperazin-1-yl-6,7-dihydro-5H-cyclopenta[b]pyridine]
Ki (human 5HT2c receptor): 26.6 nM
Ki (rat 5HT2a receptor): 25 nM
Ki (human 5HT2b receptor): 159 nM

SMILES: C[C@@H]1CNCCN1c1ccc2c(n1)[C@@H](OCc1cccc(C#N)c1)CC2 [Example 2A-4, 3-[({(7S)-2-[(2R)-2-methylpiperazin-1-yl]-6,7-dihydro-5H-cyclopenta[b]pyridin-7-yl}oxy)methyl]benzonitrile]
Ki (human 5HT2c receptor; [2]): 6.9 nM
Ki (rat 5HT2a receptor; [3]): 33.9 nM
Ki (human 5HT2b receptor): 803 nM

SMILES: Fc1cc2c(c(O[C@H]3CCc4ccc(N5CCNCC5)nc43)c1)CCC2 [Example 3A-76, (7S)-7-[(6-fluoro-2,3-dihydro-1H-inden-4-yl)oxy]-2-piperazin-1-yl-6,7-dihydro-5H-cyclopenta[b]pyridine]
Ki (human 5HT2c receptor; [2]): 3 nM
Ki (rat 5HT2a receptor; [3]): 2.8 nM
Ki (human 5HT2b receptor): 53 nM

SMILES: c1ccc2c(O[C@H]3CCc4ccc(N5CCNCC5)nc43)cncc2c1 [Example 3A-83, 4-{[(7S)-2-piperazin-1-yl-6,7-dihydro-5H-cyclopenta[b]pyridin-7-yl]oxy}isoquinoline]
Ki (human 5HT2c receptor): 17.9 nM
Ki (rat 5HT2a receptor): 46.8 nM
Ki (human 5HT2b receptor; read-out: 2bKi, receptor binding, 5HT2b): 145 nM

Ki (human 5HT2c receptor; [2]): 5.11 nM
Ki (rat 5HT2a receptor; [3]): 4.14 nM
Ki (human 5HT2b receptor): 21 nM
SMILES: C[C@@H]1CNCCN1c1ccc2c(n1)[C@@H](Oc1ccccc1F)CC2 [Example 4A-4]

SMILES: O=C1Cc2cc(CCN3CCN(c4nsc5ccccc45)CC3)c(Cl)cc2N1 [Ziprasidone, 5-[2-[4-(1,2-benzisothiazol-3-yl)piperazin-1-yl]ethyl]-6-chloroindolin-2-one]
half-life ([1]; in vivo): 6 to 7 h
protein binding ([1]; in vivo): extensive
Oral bioavailability ([1]; taken with food): approximately 60%
